Experiments:
[1] = molecular target: T1, WRN [UniPro: Q14191 (WRN_HUMAN), N500-C946] (Homo sapiens (Human), UniProt Q14191); assay: WRN ATPase assay (ADP-Glo); format: biochemical; settings: WRN enzymatic activity assay
[2] = molecular target: T1, WRN [UniPro: Q14191 (WRN_HUMAN), N500-C946]; assay: WRN unwinding assay (FORKF DNA, fluorescence); format: biochemical; settings: Table 14

T1 sequence (Q14191 500-946): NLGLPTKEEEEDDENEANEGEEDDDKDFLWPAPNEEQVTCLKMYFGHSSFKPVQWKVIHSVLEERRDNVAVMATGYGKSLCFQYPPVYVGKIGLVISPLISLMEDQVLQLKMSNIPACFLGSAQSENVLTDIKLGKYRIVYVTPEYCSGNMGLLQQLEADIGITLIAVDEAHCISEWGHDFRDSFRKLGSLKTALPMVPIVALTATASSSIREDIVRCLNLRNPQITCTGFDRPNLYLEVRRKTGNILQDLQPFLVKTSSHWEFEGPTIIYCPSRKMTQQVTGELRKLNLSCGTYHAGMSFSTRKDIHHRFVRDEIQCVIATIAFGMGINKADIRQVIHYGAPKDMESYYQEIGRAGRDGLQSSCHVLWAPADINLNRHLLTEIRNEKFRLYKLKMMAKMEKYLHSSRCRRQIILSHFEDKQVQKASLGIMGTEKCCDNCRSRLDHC

For `CCc1c(N2CCN(C(=O)CNC(=O)c3cc(F)cc(F)c3)CC2)c(=O)n2nc(C3=CCOCC3)nc2n1CC(=O)Nc1ccc(C(F)(F)F)cc1Cl` [Example 115, N-(2-(4-(4-(2-((2-Chloro-4-(trifluoromethyl)phenyl)amino)-2-oxoethyl)-2-(3,6-dihydro-2H-pyran-4-yl)-5-ethyl-7-oxo-4,7-dihydro-[1,2,4]triazolo[1,5-a]pyrimidin-6-yl)piperazin-1-yl)-2-oxoethyl)-3,5-difluorobenzamide], which IC50 [1] is on record?
Its IC50 is < 0.1 µM.

What about the IC50 [2] of the same molecule?
The IC50 was < 0.1 µM.

For `CCc1c(N2CCN(C(=O)CNC(=O)c3cc(F)cc(NC)c3)CC2)c(=O)n2nc(N3CCOCC3)nc2n1CC(=O)Nc1ccc(C(F)(F)F)cc1F` [Example 253, N-(2-(4-(5-Ethyl-4-(2-((2-fluoro-4-(trifluoromethyl)phenyl)amino)-2-oxoethyl)-2-morpholino-7-oxo-4,7-dihydro-[1,2,4]triazolo[1,5-a]pyrimidin-6-yl)piperazin-1-yl)-2-oxoethyl)-3-fluoro-5-(methylamino)benzamide], which IC50 [1] is on record?
The IC50 was < 0.1 µM.

What about the IC50 [2] of the same molecule?
The IC50 was < 0.1 µM.

What does the source list for `CCc1c(N2CCN(C(=O)CNC(=O)c3cccc(O)c3F)CC2)c(=O)n2nc(C3=CCOCC3)nc2n1CC(=O)Nc1ccc(C(F)(F)F)cc1Cl` [Example 293, N-(2-(4-(4-(2-((2-Chloro-4-(trifluoromethyl)phenyl)amino)-2-oxoethyl)-2-(3,6-dihydro-2H-pyran-4-yl)-5-ethyl-7-oxo-4,7-dihydro-[1,2,4]triazolo[1,5-a]pyrimidin-6-yl)piperazin-1-yl)-2-oxoethyl)-2-fluoro-3-hydroxybenzamide]?
IC50 [1]: < 0.1 µM; IC50 [2]: < 0.1 µM

How did the IC50 [1] turn out when `CCc1c(N2CCN(C(=O)c3nccn(C)c3=O)CC2)c(=O)n2nc(C3=CCOCC3)nc2n1CC(=O)Nc1ccc(C(F)(F)F)cc1Cl` [Example 54, N-(2-Chloro-4-(trifluoromethyl)phenyl)-2-(2-(3,6-dihydro-2H-pyran-4-yl)-5-ethyl-6-(4-(4-methyl-3-oxo-3,4-dihydropyrazine-2-carbonyl)piperazin-1-yl)-7-oxo-[1,2,4]triazolo[1,5-a]pyrimidin-4(7H)-yl)acetamide] was run?
Its IC50 is 0.1 to 1 µM.

What about the IC50 [2] of the same molecule?
Its IC50 is 0.1 to 1 µM.

Which results are given for `CCc1c(N2CCN(C(=O)c3nn(C)c(=O)[nH]c3=O)CC2)c(=O)n2nc(C3=CCOCC3)nc2n1CC(=O)Nc1ccc(C(F)(F)F)cc1Cl` [Example 58, N-(2-Chloro-4-(trifluoromethyl)phenyl)-2-(2-(3,6-dihydro-2H-pyran-4-yl)-5-ethyl-6-(4-(2-methyl-3,5-dioxo-2,3,4,5-tetrahydro-1,2,4-triazine-6-carbonyl)piperazin-1-yl)-7-oxo-[1,2,4]triazolo[1,5-a]pyrimidin-4(7H)-yl)acetamide]?
IC50 [1]: < 0.1 µM; IC50 [2]: < 0.1 µM

What does the source list for `CCc1c(N2CCN(C(=O)CNC(=O)c3cccnc3O)CC2)c(=O)n2nc(C3=CCOCC3)nc2n1CC(=O)Nc1ccc(C(F)(F)F)cc1Cl` [Example 282, N-(2-(4-(4-(2-((2-Chloro-4-(trifluoromethyl)phenyl)amino)-2-oxoethyl)-2-(3,6-dihydro-2H-pyran-4-yl)-5-ethyl-7-oxo-4,7-dihydro-[1,2,4]triazolo[1,5-a]pyrimidin-6-yl)piperazin-1-yl)-2-oxoethyl)-2-hydroxynicotinamide]?
IC50 [1]: < 0.1 µM; IC50 [2]: < 0.1 µM

`CCc1c(N2CCN(C(=O)CNC(=O)N3CCCC3)CC2)c(=O)n2nc(C3=CCOCC3)nc2n1CC(=O)Nc1ccc(C(F)(F)F)cc1Cl` [Example 166, N-(2-(4-(4-(2-((2-Chloro-4-(trifluoromethyl)phenyl)amino)-2-oxoethyl)-2-(3,6-dihydro-2H-pyran-4-yl)-5-ethyl-7-oxo-4,7-dihydro-[1,2,4]triazolo[1,5-a]pyrimidin-6-yl)piperazin-1-yl)-2-oxoethyl)pyrrolidine-1-carboxamide] was tested. Which IC50 [1] did it give?
Its IC50 is 0.1 to 1 µM.

And the IC50 [2]?
Its IC50 is < 0.1 µM.

Which results are given for `CCc1c(N2CCN(C(=O)c3nc4cnccn4c3O)CC2)c(=O)n2nc(C3=CCOCC3)nc2n1CC(=O)Nc1ccc(C(F)(F)F)cc1Cl` [Example 75, N-(2-Chloro-4-(trifluoromethyl)phenyl)-2-(2-(3,6-dihydro-2H-pyran-4-yl)-5-ethyl-6-(4-(3-hydroxyimidazo[1,2-a]pyrazine-2-carbonyl)piperazin-1-yl)-7-oxo-[1,2,4]triazolo[1,5-a]pyrimidin-4(7H)-yl)acetamide]?
IC50 [1]: 0.1 to 1 µM; IC50 [2]: < 0.1 µM

For `CCc1c(N2CCN(C(=O)CNC(=O)c3nccs3)CC2)c(=O)n2nc(C3=CCOCC3)nc2n1CC(=O)Nc1ccc(C(F)(F)F)cc1F` [Example 216, N-(2-(4-(2-(3,6-Dihydro-2H-pyran-4-yl)-5-ethyl-4-(2-((2-fluoro-4-(trifluoromethyl)phenyl)amino)-2-oxoethyl)-7-oxo-4,7-dihydro-[1,2,4]triazolo[1,5-a]pyrimidin-6-yl)piperazin-1-yl)-2-oxoethyl)thiazole-2-carboxamide], which IC50 [1] is on record?
The IC50 was < 0.1 µM.

And the IC50 [2]?
Its IC50 is < 0.1 µM.

`CCc1c(N2CCN(C(=O)CNC(=O)[C@H]3CCCO3)CC2)c(=O)n2nc(C3=CCOCC3)nc2n1CC(=O)Nc1ccc(C(F)(F)F)cc1Cl` [Example 321, (R)—N-(2-(4-(4-(2-((2-Chloro-4-(trifluoromethyl)phenyl)amino)-2-oxoethyl)-2-(3,6-dihydro-2H-pyran-4-yl)-5-ethyl-7-oxo-4,7-dihydro-[1,2,4]triazolo[1,5-a]pyrimidin-6-yl)piperazin-1-yl)-2-oxoethyl)tetrahydrofuran-2-carboxamide] was tested. Which IC50 [1] did it give?
Its IC50 is 0.1 to 1 µM.

And the IC50 [2]?
The IC50 was < 0.1 µM.

For `CCc1c(N2CCN(C(=O)c3cnn4cccc4c3O)CC2)c(=O)n2nc(C3=CCOCC3)nc2n1CC(=O)Nc1ccc(C(F)(F)F)cc1Cl` [Example 84, N-(2-Chloro-4-(trifluoromethyl)phenyl)-2-(2-(3,6-dihydro-2H-pyran-4-yl)-5-ethyl-6-(4-(4-hydroxypyrrolo[1,2-b]pyridazine-3-carbonyl)piperazin-1-yl)-7-oxo-[1,2,4]triazolo[1,5-a]pyrimidin-4(7H)-yl)acetamide], which IC50 [1] is on record?
Its IC50 is < 0.1 µM.

What about the IC50 [2] of the same molecule?
The IC50 was < 0.1 µM.

Which IC50 [1] does the source give for `CCc1c(N2CCN(C(=O)C(=O)Nc3nccs3)CC2)c(=O)n2nc(N3CCOCC3)nc2n1CC(=O)Nc1ccc(C(F)(F)F)cc1F` [Example 260, 2-(4-(5-Ethyl-4-(2-((2-fluoro-4-(trifluoromethyl)phenyl)amino)-2-oxoethyl)-2-morpholino-7-oxo-4,7-dihydro-[1,2,4]triazolo[1,5-a]pyrimidin-6-yl)piperazin-1-yl)-2-oxo-N-(thiazol-2-yl)acetamide] here?
The IC50 was < 0.1 µM.

And the IC50 [2]?
The IC50 was < 0.1 µM.

For `CCc1c(N2CCN(C(=O)CNC(=O)c3ccccc3)CC2)c(=O)n2nc(N3CCOCC3)nc2n1CC(=O)Nc1ccc(C(F)(F)F)cc1Cl` [Example 231, N-(2-(4-(4-(2-((2-Chloro-4-(trifluoromethyl)phenyl)amino)-2-oxoethyl)-5-ethyl-2-morpholino-7-oxo-4,7-dihydro-[1,2,4]triazolo[1,5-a]pyrimidin-6-yl)piperazin-1-yl)-2-oxoethyl)benzamide], which IC50 [1] is on record?
Its IC50 is < 0.1 µM.

What about the IC50 [2] of the same molecule?
The IC50 was < 0.1 µM.

`CCc1c(N2CCN(C(=O)CNC(=O)c3ccc(F)c(NC)c3)CC2)c(=O)n2nc(N3CCOCC3)nc2n1CC(=O)Nc1ccc(C(F)(F)F)cc1F` [Example 256, N-(2-(4-(5-Ethyl-4-(2-((2-fluoro-4-(trifluoromethyl)phenyl)amino)-2-oxoethyl)-2-morpholino-7-oxo-4,7-dihydro-[1,2,4]triazolo[1,5-a]pyrimidin-6-yl)piperazin-1-yl)-2-oxoethyl)-4-fluoro-3-(methylamino)benzamide] was tested. Which IC50 [1] did it give?
The IC50 was < 0.1 µM.

And the IC50 [2]?
Its IC50 is < 0.1 µM.

What does the source list for `CCc1c(N2CCN(C(=O)CNC(=O)NC3CC3)CC2)c(=O)n2nc(C3=CCOCC3)nc2n1CC(=O)Nc1ccc(C(F)(F)F)cc1Cl` [Example 184, N-(2-Chloro-4-(trifluoromethyl)phenyl)-2-(6-(4-((cyclopropylcarbamoyl)glycyl)piperazin-1-yl)-2-(3,6-dihydro-2H-pyran-4-yl)-5-ethyl-7-oxo-[1,2,4]triazolo[1,5-a]pyrimidin-4(7H)-yl)acetamide]?
IC50 [1]: < 0.1 µM; IC50 [2]: < 0.1 µM

`CCc1c(N2CCN(C(=O)CNC(C)=O)CC2)c(=O)n2nc(C3=CCOCC3)nc2n1CC(=O)Nc1ccc(C(F)(F)F)cc1Cl` [Example 168, 2-(6-(4-(Acetylglycyl)piperazin-1-yl)-2-(3,6-dihydro-2H-pyran-4-yl)-5-ethyl-7-oxo-[1,2,4]triazolo[1,5-a]pyrimidin-4(7H)-yl)-N-(2-chloro-4-(trifluoromethyl)phenyl)acetamide] was tested. Which IC50 [1] did it give?
The IC50 was < 0.1 µM.

What about the IC50 [2] of the same molecule?
The IC50 was < 0.1 µM.

How did the IC50 [1] turn out when `CCc1c(N2CCN(C(=O)c3cnc4[nH]ncc4c3O)CC2)c(=O)n2nc(C3=CCOCC3)nc2n1CC(=O)Nc1ccc(C(F)(F)F)cc1Cl` [Example 3, N-(2-Chloro-4-(trifluoromethyl)phenyl)-2-(2-(3,6-dihydro-2H-pyran-4-yl)-5-ethyl-6-(4-(4-hydroxy-1H-pyrazolo[3,4-b]pyridine-5-carbonyl)piperazin-1-yl)-7-oxo-[1,2,4]triazolo[1,5-a]pyrimidin-4(7H)-yl)acetamide] was run?
Its IC50 is < 0.1 µM.

And the IC50 [2]?
Its IC50 is < 0.1 µM.

What does the source list for `CCc1c(N2CCN(C(=O)c3ccn4nc(C)cc4c3O)CC2)c(=O)n2nc(C3=CCOCC3)nc2n1CC(=O)Nc1ccc(C(F)(F)F)cc1Cl` [Example 72, N-(2-Chloro-4-(trifluoromethyl)phenyl)-2-(2-(3,6-dihydro-2H-pyran-4-yl)-5-ethyl-6-(4-(4-hydroxy-2-methylpyrazolo[1,5-a]pyridine-5-carbonyl)piperazin-1-yl)-7-oxo-[1,2,4]triazolo[1,5-a]pyrimidin-4(7H)-yl)acetamide]?
IC50 [1]: < 0.1 µM; IC50 [2]: < 0.1 µM

For `CCc1c(N2CCN(C(=O)CNC(=O)c3cccc(=O)[nH]3)CC2)c(=O)n2nc(C3=CCOCC3)nc2n1CC(=O)Nc1ccc(C(F)(F)F)cc1Cl` [Example 366, N-(2-(4-(4-(2-((2-Chloro-4-(trifluoromethyl)phenyl)amino)-2-oxoethyl)-2-(3,6-dihydro-2H-pyran-4-yl)-5-ethyl-7-oxo-4,7-dihydro-[1,2,4]triazolo[1,5-a]pyrimidin-6-yl)piperazin-1-yl)-2-oxoethyl)-6-oxo-1,6-dihydropyridine-2-carboxamide], which IC50 [1] is on record?
Its IC50 is < 0.1 µM.

And the IC50 [2]?
Its IC50 is < 0.1 µM.

Source: US20260015358A1, “BICYCLIC DERIVATIVES, COMPOSITIONS AND USES THEREOF” (Danatlas Pharmaceuticals Co., Ltd., priority 2023, published 2026)
